The target in data set [1] is T1, full length Keap1 protein / full length NRF2 protein (Homo sapiens, UniProt Q14145).
T1 construct: full length NRF2 protein and full length Keap1 protein (Keap1 exists a dimer) are used
Put plainly: NRF2-Keap1 TR-FRET assay. The class given is binding. The following applies: full length Keap1-FlagHis and biotin-NRF2. From the text: In the NRF2-Keap1 TR-FRET (time-resolved fluorescence resonance energy transfer) assay, full length NRF2 protein and full length Keap1 protein (Keap1 exists a dimer) are used. The assay detects the ability of compound to displace the binding of FlagHis-tagged Keap1 with biotinylated, Avi-tagged NRF2 protein. Biotin-NRF2 binds to streptavidin-europium (a component of the detection mix) and Keap1-FlagHis is recognized by anti-Flag APC (allophycocyanin) antibody (also a component of the detection mix). If binding occurs between the two proteins, there will be an energy transfer from the Eu+3 (donor) at 615 nm to the APC (acceptor) at 665 nm. A potential Keap1 inhibitor will cause a reduction in the TR-FRET signal by interfering with the binding of Keap1 to NRF2.
One hundred nanoliters of 100× compound dose response curves (serial 3-fold dilutions) in DMSO are stamped using an Echo liquid handling system (Labcyte) into 384-well, low volume, black assay plates (Greiner, #784076), with DMSO in columns 6 and 18. The top concentration of compound is located in columns 1 and 13. All reagents are diluted in assay buffer (50 mM Tris, pH 8.0, 5 mM MgCl2, 100 mM NaCl, 0.005% BSA, 1 mM DTT, and 2 mM CHAPS). The BSA, DTT, and CHAPS are added to the assay buffer on the day of assay. […] Plates are spun at 500 rpm for 1 minute, incubated for 1 hour at RT, and read on an Envision plate reader using a 320 nm excitation filter and 615 nm and 665 nm emission filters. Compound response (% inhibition) and potency (pIC50) are calculated based on the ratio of the two emissions (665 nm/615 nm) and then the transformed data is normalized against controls in the assay (control 1=1% DMSO in the presence of NRF2 and Keap1 protein and control 2=1% DMSO in the absence of protein). […] The % inhibition values are calculated from the ratio (transformed) data by the equation: 100−(100*(compound response−average control 2)/(average control 1−average control2)). […]

The nature of a further data set: Rat PK. Type of data set: in vivo. The following applies: oral bioavailability.
Data set [2] has as its target T2, Kelch domain (321-609) of Keap1 / TAMRA-labeled NRF2 ETGE peptide (Homo sapiens, UniProt Q14145).
T2 construct: the Kelch domain (321-609) of Keap1 is used
Put plainly: NRF2-Keap1 FP assay (Keap1 Kelch fluorescence polarization). The class given is binding. The following applies: Keap1 (321-609) 20 nM, Tamra labelled peptide 8 nM. From the text: NRF2-Keap1 FP Assay One model for the NRF2-Keap1 interaction is through two binding sites in the Neh2 domain on NRF2. The two sites are referred to as the DLG binding motif (latch domain, uM affinity) and the ETGE binding motif (hinge domain, nM affinity). The Keap1 protein consists of an N-terminal region (NTR), a broad complex, tramtrack, and brick a brac domain (BTB), an intervening region (IVR), a double glycine repeat domain (DGR or Kelch), and a C-terminal region. The DLG and ETGE motifs of NRF2's Neh2 domain bind to the Kelch domain of Keap1 at different affinities. In the Keap1 Kelch fluorescence polarization (FP) assay, a TAMRA-labeled 16 mer peptide (AFFAQLQLDEETGEFL) containing the ETGE motif of NRF2 and the Kelch domain (321-609) of Keap1 is used. The assay determines if a compound interferes with the binding between Keap1 […] and the TAMRA-labeled peptide. Binding of TAMRA-labeled NRF2 peptide to Keap1 (321-609) results in a high FP signal. If a compound interferes with the binding between the peptide and the protein, it will cause the assay signal to decrease. Thus, assay signal is inversely proportional to binding inhibition. FP Assay:
100 nl of 100× compound dose response curves (serial 3-fold dilutions) in DMSO are stamped using an Echo liquid handling system (Labcyte) into 384-well low volume black assay plates (Greiner, #784076), with DMSO in columns 6 and 18. […] The plates are spun at 500 rpm for 1 min, incubated for 1 hr at room temperature, and read on an Analyst GT (Molecular Devices) equipped with excitation (530/25 nm) and emission (580/10 nm) filters designed for Tamra probes. […] Fluorescence measurements, represented as mP, are used in the transformation of the data. Compound activity is calculated based on percent inhibition, normalized against controls in the assay (Control 1 contains the Tamra peptide and Keap1 (321-609) together (0% response) and control 2 contains the Tamra peptide alone (100% response)). Data analysis is handled using the software package Abase XE (Surrey, United Kingdom. The % inhibition values are calculated by the equation: […]
In general terms: In fluorescence polarisation assays a small probe gives low polarisation when free and higher when bound to something large.

Data set [3] concerns NQO1 specific activity induction (marker for NRF2 activation) in BEAS-2B cells. Put plainly: BEAS-2B NQO1 MTT assay. The class given is cell-based. To be noted: Homo sapiens, 48 hours with compound. From the text: NAD(P)H:quinone oxidoreductase 1 (NQO1), also called DT diaphorase, is a homodimeric FAD-containing enzyme that catalyzes obligatory NAD(P)H-dependent two-electron reductions of quinones and protects cells against the toxic and neoplastic effects of free radicals and reactive oxygen species arising from one-electron reductions. The transcription of NQO1 is finely regulated by NRF2, and thus NQO1 activity is a good marker for NRF2 activation. On day one, frozen BEAS-2B cells (ATCC) are thawed in a water bath, counted, and re-suspended at a concentration of 250,000 cells/mL. Fifty microliters of cells are plated in 384 well black clear-bottomed plates. Plates are incubated at 37° C., 5% CO2 overnight. On day two, plates are centrifuged and 50 nL of compound or controls are added to the cells. Plates are then incubated at 37° C., 5% CO2 for 48 hours. On day four, medium is aspirated from the plate and crude cell lysates are made by adding 13 uL of 1× Cell Signaling Technologies lysis buffer with 1 Complete, Mini, EDTA-free Protease Inhibitor Tablet (Roche) for each 10 mL of lysis buffer. After lysis plates are incubated for 20 minutes at room temperature. Two microliters of lysate are removed for use in Cell Titer Glo assay (Promega) and MTT cocktail is prepared (Prochaska et. al. 1998) for measurement of NQO1 activity. Fifty microliters of MTT cocktail is added to each well, plate is centrifuged, and analyzed on an Envision plate reader (Perkin Elmer) using Absorbance 570 nm label for 30 minutes. Product formation is measured kinetically and the EC50 of NQO1 specific activity induction is calculated by plotting the change in absorbance (Delta OD/min) versus the log of compound concentration followed by 3-parameter fitting.
A general note: Tetrazolium dyes change colour on reduction, which living cells bring about.

Another data set is described as follows: Dog PK study. The class given is in vivo. The following applies: for Dog PK Fpo: male beagle dogs, nominal 1 mg/kg, oral gavage solution vs 60-minute intravenous infusion, cassette, non-crossover. The procedure:
One hundred nanoliters of 100× compound dose response curves (serial 3-fold dilutions) in DMSO are stamped using an Echo liquid handling system (Labcyte) into 384-well, low volume, black assay plates (Greiner, #784076), with DMSO in columns 6 and 18. The top concentration of compound is located in columns 1 and 13. All reagents are diluted in assay buffer (50 mM Tris, pH 8.0, 5 mM MgCl2, 100 mM NaCl, 0.005% BSA, 1 mM DTT, and 2 mM CHAPS). The BSA, DTT, and CHAPS are added to the assay buffer on the day of assay. Using a Multidrop Combi (Thermo Electron Corporation) equipped with a metal tip dispenser, 5 ul of 25 nM Keap1-FlagHis protein is added to all wells of the compound plate, with the exception of the wells in column 18. Wells in column 18 receive 5 ul of assay buffer instead. Plates are centrifuged at 500 rpm for 1 minute, covered with a plate lid, and incubated at 37° C. for 2.25 hours. Plates are then removed from the incubator and allowed to cool to RT for 15 minutes. Five microliters of 50 nM biotin-NRF2 protein is then added to all wells of the plates and the plates are spun at 500 rpm for 1 minute, followed by incubating at 4° C. for 1.25 hours. The plates are then allowed to warm to RT for 15 minutes, followed by the addition of 10 ul of detection mix (1 nM Streptavidin Eu+ W1024 and 5 ug/ml mouse anti-DYKDDDDK IgG conjugated to SureLight APC antibody; both from Columbia Biosciences) to all wells. Plates are spun at 500 rpm for 1 minute, incubated for 1 hour at RT, and read on an Envision plate reader using a 320 nm excitation filter and 615 nm and 665 nm emission filters. Compound response (% inhibition) and potency (pIC50) are calculated based on the ratio of the two emissions (665 nm/615 nm) and then the transformed data is normalized against controls in the assay (control 1=1% DMSO in the presence of NRF2 and Keap1 protein and control 2=1% DMSO in the absence of protein). Data analysis is handled using the software package Abase XE (Surrey, United Kingdom). The % inhibition values are calculated from the ratio (transformed) data by the equation: 100−(100*(compound response−average control 2)/(average control 1−average control2)). For calculation of pIC50s, Abase XE uses a four parameter equation. Dog PK Study
All studies were conducted after review by the GSK Institutional Animal Care and Use Committee and in accordance with the GSK Policy on the Care, Welfare and Treatment of Laboratory Animals. A pre-study health examination that included a physical exam and complete blood count was performed on the animals prior to use on study. A catheter was temporarily placed in a cephalic or saphenous vein for sample collection on the study day. The animals were fasted overnight prior to dosing; food provided after the 4-hour blood sample was collected. The intravenous and oral solution pharmacokinetic studies were carried out using a non-crossover design; a total of four male beagle dogs were used, two per route of administration.
The dose for intravenous administration was prepared as a cassette of up to five test compounds in 20% Cavitron™ and 5% DMSO. The intravenous dose formulation was filtered through a 0.22-micron polytetrafluoroethylene (PTFE) filter prior to administration. The dose for oral solution administration was prepared as a cassette of up to five compounds in 6% Cavitron™ and 5% DMSO and was filtered through a 0.22 micron VWR PTFE filter prior to administration. […]

Experimental findings from patent US11028099B2, “NRF2 activators” (GLAXOSMITHKLINE INTELLECTUAL PROPERTY DEVELOPMENT LIMITED, priority 2016, dated 2021) are described below.

T1 sequence (Q14145 whole entry): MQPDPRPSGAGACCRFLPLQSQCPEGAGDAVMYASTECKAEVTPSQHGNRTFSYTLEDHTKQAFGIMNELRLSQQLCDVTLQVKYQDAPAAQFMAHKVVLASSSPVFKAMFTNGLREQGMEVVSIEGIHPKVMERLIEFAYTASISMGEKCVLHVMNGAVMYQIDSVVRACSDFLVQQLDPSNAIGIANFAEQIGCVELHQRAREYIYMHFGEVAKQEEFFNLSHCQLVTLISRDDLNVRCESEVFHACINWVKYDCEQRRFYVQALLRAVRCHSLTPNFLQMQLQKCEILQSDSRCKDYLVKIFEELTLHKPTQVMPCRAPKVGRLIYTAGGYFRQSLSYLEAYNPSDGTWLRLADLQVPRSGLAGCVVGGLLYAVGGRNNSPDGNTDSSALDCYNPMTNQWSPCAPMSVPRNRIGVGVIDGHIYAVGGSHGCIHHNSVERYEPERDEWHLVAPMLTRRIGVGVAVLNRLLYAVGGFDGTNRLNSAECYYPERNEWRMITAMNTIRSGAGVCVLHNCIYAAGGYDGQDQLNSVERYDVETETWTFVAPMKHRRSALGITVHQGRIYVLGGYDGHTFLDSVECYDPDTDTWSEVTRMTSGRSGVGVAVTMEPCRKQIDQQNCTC
T2 sequence (Q14145 321-609): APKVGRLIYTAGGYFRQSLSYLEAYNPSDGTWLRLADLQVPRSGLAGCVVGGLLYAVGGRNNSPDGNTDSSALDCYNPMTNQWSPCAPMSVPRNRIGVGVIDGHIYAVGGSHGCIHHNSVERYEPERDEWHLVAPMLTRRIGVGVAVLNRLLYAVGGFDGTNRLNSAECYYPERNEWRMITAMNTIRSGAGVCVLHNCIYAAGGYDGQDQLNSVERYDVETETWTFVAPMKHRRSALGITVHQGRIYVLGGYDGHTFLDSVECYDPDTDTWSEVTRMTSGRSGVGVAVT

One may read the IC50 as the concentration needed to halve the response being measured. Lower therefore signals greater potency in that assay. The EC50 is the midpoint of the concentration-response curve. As for `CC[C@@H]1CN(Cc2cc(C(CC(=O)O)c3ccc4c(nnn4C)c3C)ccc2C)Cc2ncccc2O1` (mixture of isomers) [Beta-stereocenter 50/50 mixture, 3-(1,4-Dimethyl-1H-benzo[d][1,2,3]triazol-5-yl)-3-(3-(((R)-2-ethyl-2,3-dihydropyrido[2,3-t][1,4]oxazepin-4(5H)-yl)methyl)-4-methylphenyl)propanoic acid], the IC50 in data set [1] turned out to be 25 nM; in data set [2] it was 63 nM. The “Rat PK Fpo” value in the data set “Rat PK” amounted to 177%. The EC50 in data set [3] amounted to 20 nM.

As to `CC[C@@H]1CN(Cc2cc([C@@H](CC(=O)O)c3ccc4c(nnn4C)c3C)ccc2C)Cc2ncccc2O1` [Formula (I) R-beta-stereocenter isomer, (R)-3-(1,4-dimethyl-1H-benzo[d][1,2,3]triazol-5-yl)-3-(3-(((R)-2-ethyl-2,3-dihydropyrido[2,3-f][1,4]oxazepin-4(5H)-yl)methyl)-4-methylphenyl)propanoic acid], the IC50 in data set [1] came to 16 nM; in data set [2], 40 nM. Also, the “Rat PK Fpo” value in the data set “Rat PK” is reported as 129%. In the data set “Dog PK study” (compound of the invention versus the S-isomer, dog), the “difference in the dog oral bioavailability” value was around 5 fold. The “Dog PK Fpo” value in “Dog PK study” and in “Dog PK study” (listed as compound of the invention) was 52% each time. The EC50 in data set [3] is 20 nM.

In the case of `CC[C@@H]1CN(Cc2cc([C@H](CC(=O)O)c3ccc4c(nnn4C)c3C)ccc2C)Cc2ncccc2O1` [S-beta-stereocenter isomer, (S)-3-(1,4-dimethyl-1H-benzo[d][1,2,3]triazol-5-yl)-3-(3-(((R)-2-ethyl-2,3-dihydropyrido[2,3-f][1,4]oxazepin-4(5H)-yl)methyl)-4-methylphenyl)propanoic acid], the IC50 was determined as 12 nM in data set [1] and 50 nM in data set [2]. The “Rat PK Fpo” value in the data set “Rat PK” is 78%. Further, the “Dog PK Fpo” value in the data set “Dog PK study” and in the data set “Dog PK study” (listed as S-isomer) was 11% in each case. The EC50 in data set [3] came to 16 nM.
